Experimental data reported in US11208414B2, “Ectonucleotidase inhibitors and methods of use thereof” (Calithera Biosciences, Inc., priority 2016, dated 2021).

Molecular target: recombinant CD73 (Homo sapiens (Human), UniProt P21589)
Experiment: Inhibition of soluble recombinant CD73 enzyme activity (Malachite Green)
Assay type: biochemical
Settings: recombinant CD73 0.5 nM, AMP 50 μM, 30 minutes at room temperature
Description: The concentration of inorganic phosphate was determined using a phosphate standard curve.

recombinant CD73, sequence (P21589 27-547): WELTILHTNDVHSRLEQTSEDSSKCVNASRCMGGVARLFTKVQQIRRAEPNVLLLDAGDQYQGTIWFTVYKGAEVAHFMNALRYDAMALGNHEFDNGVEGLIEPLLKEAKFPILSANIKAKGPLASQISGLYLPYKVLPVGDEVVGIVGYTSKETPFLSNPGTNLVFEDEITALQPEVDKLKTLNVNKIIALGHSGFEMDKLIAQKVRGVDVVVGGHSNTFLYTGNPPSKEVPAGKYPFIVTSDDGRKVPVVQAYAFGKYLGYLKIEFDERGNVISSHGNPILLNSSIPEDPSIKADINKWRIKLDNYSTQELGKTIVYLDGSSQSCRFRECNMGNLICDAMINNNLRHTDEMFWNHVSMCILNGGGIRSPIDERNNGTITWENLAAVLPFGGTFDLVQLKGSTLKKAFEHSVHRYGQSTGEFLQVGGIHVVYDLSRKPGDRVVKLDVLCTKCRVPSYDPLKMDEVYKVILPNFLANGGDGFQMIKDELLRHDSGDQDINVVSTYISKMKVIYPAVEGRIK

- IC50: > 50 µM
SMILES: Nc1ncnc2c1ncn2[C@@H]1O[C@H](COC(C(=O)O)C(=O)O)[C@@H](O)C1F (stereo in doubt) [compound 9, 2-(((2R,3R,4R,5R)-5-(6-amino-9H-purin-9-yl)-4-fluoro-3-hydroxytetrahydrofuran-2-yl)-methoxy)malonic acid]
